Inconclusive results and toxic doses are left out. No stated cut-off is given here; in the data, active means T/C of 150% or more; inactive means T/C below 125%.
System: L1210 leukemia ip in BDF1 mice, survival T/C
Experiment: NCI In Vivo Anticancer Drug Screen. Data for tumor model L1210 Leukemia (intraperitoneal) in B6D2F1 (BDF1) mice
Settings: endpoint: mean survival time, higher = longer survival
Method in brief: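 In this screen, tumor-bearing mice given compound are compared to those given vehicle, and their survival values are reported as a treated-to-control quotient.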

[1] = dose: 100.0 mg/kg/injection, schedule: Q01DX001 (ip), vehicle: saline
[2] = dose: 200.0 mg/kg/injection, schedule: Q01DX001 (ip), vehicle: saline
[3] = dose: 400.0 mg/kg/injection, schedule: Q01DX001 (ip), vehicle: saline
[4] = dose: 100.0 mg/kg/injection, schedule: Q01DX001 (ip), vehicle: carboxymethylcellulose (CMC)
[5] = dose: 200.0 mg/kg/injection, schedule: Q01DX001 (ip), vehicle: carboxymethylcellulose (CMC)
[6] = dose: 100.0 mg/kg/injection, schedule: Q04DX003 (ip), vehicle: saline
[7] = dose: 200.0 mg/kg/injection, schedule: Q04DX003 (ip), vehicle: saline
[8] = dose: 400.0 mg/kg/injection, schedule: Q04DX003 (ip), vehicle: saline
[9] = dose: 100.0 mg/kg/injection, schedule: Q01DX009 (ip), vehicle: Klucel (hydroxypropylcellulose) (HPC)
[10] = dose: 200.0 mg/kg/injection, schedule: Q01DX009 (ip), vehicle: Klucel (hydroxypropylcellulose) (HPC)
[11] = dose: 50.0 mg/kg/injection, schedule: Q01DX009 (ip), vehicle: saline with Tween-80
[12] = dose: 100.0 mg/kg/injection, schedule: Q01DX009 (ip), vehicle: saline with Tween-80
[13] = dose: 200.0 mg/kg/injection, schedule: Q01DX009 (ip), vehicle: saline with Tween-80
[14] = dose: 400.0 mg/kg/injection, schedule: Q01DX009 (ip), vehicle: Klucel (hydroxypropylcellulose) (HPC)
[15] = dose: 100.0 mg/kg/injection, schedule: Q01DX001 (ip), vehicle: Klucel (hydroxypropylcellulose) (HPC)
[16] = dose: 200.0 mg/kg/injection, schedule: Q01DX001 (ip), vehicle: Klucel (hydroxypropylcellulose) (HPC)
[17] = dose: 400.0 mg/kg/injection, schedule: Q01DX001 (ip), vehicle: Klucel (hydroxypropylcellulose) (HPC)
[18] = dose: 100.0 mg/kg/injection, schedule: Q04DX003 (ip), vehicle: Klucel (hydroxypropylcellulose) (HPC)
[19] = dose: 200.0 mg/kg/injection, schedule: Q04DX003 (ip), vehicle: Klucel (hydroxypropylcellulose) (HPC)
[20] = dose: 400.0 mg/kg/injection, schedule: Q04DX003 (ip), vehicle: Klucel (hydroxypropylcellulose) (HPC)
[21] = dose: 100.0 mg/kg/injection, schedule: Q04DX002 (ip), vehicle: Klucel (hydroxypropylcellulose) (HPC)
[22] = dose: 200.0 mg/kg/injection, schedule: Q04DX002 (ip), vehicle: Klucel (hydroxypropylcellulose) (HPC)
[23] = dose: 400.0 mg/kg/injection, schedule: Q04DX002 (ip), vehicle: Klucel (hydroxypropylcellulose) (HPC)

Measured: T/C

O=C(O)c1cc(=O)c2ccc(Cl)cc2[nH]1
inactive: [1] 90 % of control | dose: 100.0 mg/kg/injection, schedule: Q04DX003 (ip), vehicle: other 88 % of control | [2] 98 % of control | dose: 200.0 mg/kg/injection, schedule: Q04DX003 (ip), vehicle: other 91 % of control | [3] 102 % of control | dose: 400.0 mg/kg/injection, schedule: Q04DX003 (ip), vehicle: other 98 % of control

CC(C)(C)C(=O)C(C)(C)C
inactive: [4] 106 % of control | [5] 101 % of control

COC1OCC(Cl)C(O)C1OS(C)(=O)=O (centres undefined)
inactive: dose: 100.0 mg/kg/injection, schedule: Q04DX002 (ip), vehicle: saline with Tween-80 96 % of control | dose: 200.0 mg/kg/injection, schedule: Q04DX002 (ip), vehicle: saline with Tween-80 100 % of control | dose: 400.0 mg/kg/injection, schedule: Q04DX002 (ip), vehicle: saline with Tween-80 104 % of control

Nc1[nH]c(=S)[nH]c(=O)c1NC(=O)C1CC1
inactive: [6] 96 % of control | [7] 105 % of control | [8] 102 % of control

CC(C)=CCCC(=O)NC(=O)NS(=O)(=O)c1ccc(Cl)cc1
inactive: dose: 50.0 mg/kg/injection, schedule: Q01DX009 (ip), vehicle: Klucel (hydroxypropylcellulose) (HPC) 109 % of control | [9] 100 % of control | [10] 96 % of control

CC1Oc2ccccc2-c2c(-c3ccccc3)nnc(-c3ccccc3)c21 (centres undefined)
inactive: dose: 100.0 mg/kg/injection, schedule: Q04DX003 (ip), vehicle: gum acacia 95 % of control | dose: 200.0 mg/kg/injection, schedule: Q04DX003 (ip), vehicle: gum acacia 102 % of control | dose: 400.0 mg/kg/injection, schedule: Q04DX003 (ip), vehicle: gum acacia 98 % of control

CCOC(=O)CCC(NC(=O)c1cccc(N(C)C=O)c1)C(=O)OCC (centres undefined)
inactive: [11] 100 % of control | [12] 92 % of control | [13] 93 % of control

CCCCOC(=O)c1ccc(NC(=O)NC)cc1
inactive: [9] 100 % of control | [10] 101 % of control | [14] 101 % of control

Cc1ccc(NC(=S)N(CCC#N)C2CCCCC2)cc1
inactive: [9] 101 % of control | [10] 104 % of control | [14] 101 % of control

Nc1cc(Cl)c([N+](=O)[O-])c(N)n1
inactive: [15] 101 % of control | [16] 106 % of control | [17] 108 % of control

CC(=O)Nc1ccc(C(=O)O)cc1O
inactive: [6] 92 % of control | [7] 92 % of control | [8] 95 % of control

CCN(CC)CCn1ncc2c1C1(C)CCC2C1(C)C (centres undefined)
inactive: dose: 25.0 mg/kg/injection, schedule: Q01DX009 (ip), vehicle: saline + alcohol 100 % of control | dose: 50.0 mg/kg/injection, schedule: Q01DX009 (ip), vehicle: saline + alcohol 104 % of control | dose: 100.0 mg/kg/injection, schedule: Q01DX009 (ip), vehicle: saline + alcohol 102 % of control | [6] 101 % of control | [7] 102 % of control

Cc1c[n+]2c3ccccc3c3ccccc3c2s1
inactive: dose: 5.0 mg/kg/injection, schedule: Q01DX009 (ip), vehicle: Klucel (hydroxypropylcellulose) (HPC) 114 % of control | dose: 10.0 mg/kg/injection, schedule: Q01DX001 (ip), vehicle: saline 105 % of control | dose: 10.0 mg/kg/injection, schedule: Q01DX009 (ip), vehicle: Klucel (hydroxypropylcellulose) (HPC) 118 % of control | dose: 10.0 mg/kg/injection, schedule: Q04DX003 (ip), vehicle: Klucel (hydroxypropylcellulose) (HPC) 94 % of control | dose: 20.0 mg/kg/injection, schedule: Q01DX001 (ip), vehicle: saline 100 % of control | dose: 20.0 mg/kg/injection, schedule: Q01DX009 (ip), vehicle: Klucel (hydroxypropylcellulose) (HPC) 123 % of control | dose: 20.0 mg/kg/injection, schedule: Q04DX003 (ip), vehicle: Klucel (hydroxypropylcellulose) (HPC) 97 % of control | dose: 40.0 mg/kg/injection, schedule: Q01DX001 (ip), vehicle: saline 98 % of control

c1ccc(C2=NCN=C2c2ccccc2)cc1
inactive: [18] 99 % of control | [19] 101 % of control | [20] 92 % of control

c1ccc(C2=NNc3cccc[n+]3C2)cc1
inactive: dose: 75.0 mg/kg/injection, schedule: Q01DX001 (ip), vehicle: other 101 % of control

COc1ccc(NC(=S)Nc2ccccc2)c(Cl)c1
inactive: [21] 105 % of control | [22] 97 % of control | [23] 108 % of control

CC(=O)Oc1cccc(OC(=O)Nc2ccc(C)c(NC(=O)Oc3cccc(OC(C)=O)c3)c2)c1
inactive: [9] 93 % of control | [10] 96 % of control | [14] 94 % of control

NC(=O)N/N=C/c1cc(=O)[nH]c(=O)[nH]1
inactive: [1] 88 % of control | [2] 97 % of control | [3] 97 % of control

NC(CSS(=O)(=O)O)=NCCN1CCNC1=O
inactive: [21] 100 % of control | [22] 100 % of control | [23] 97 % of control

CC1OC(O)C(N)C(O)C1O (centres undefined)
inactive: [1] 107 % of control | [2] 106 % of control | [3] 106 % of control

C=CCc1cc(CN(CCOCC)Cc2cc(CC=C)cc(OC)c2O)c(O)c(OC)c1
inactive: dose: 12.5 mg/kg/injection, schedule: Q04DX003 (ip), vehicle: Klucel (hydroxypropylcellulose) (HPC) 97 % of control | dose: 25.0 mg/kg/injection, schedule: Q04DX003 (ip), vehicle: Klucel (hydroxypropylcellulose) (HPC) 95 % of control | dose: 50.0 mg/kg/injection, schedule: Q04DX003 (ip), vehicle: Klucel (hydroxypropylcellulose) (HPC) 94 % of control

COC(=O)C(CCSC)NC(=O)c1ccccc1 (centres undefined)
inactive: [12] 93 % of control | [13] 96 % of control

CCOC(=O)C(C#N)(CC/C(C)=N/Nc1ccc([N+](=O)[O-])cc1[N+](=O)[O-])C(C)COC(C)=O (centres undefined)
inactive: [15] 94 % of control | [16] 91 % of control | [17] 102 % of control

CC1=CCC=C(CNc2ncnc3nc[nH]c23)C1
inactive: dose: 25.0 mg/kg/injection, schedule: Q01DX009 (ip), vehicle: saline with Tween-80 95 % of control | dose: 25.0 mg/kg/injection, schedule: Q04DX003 (ip), vehicle: saline with Tween-80 94 % of control | [11] 93 % of control | dose: 50.0 mg/kg/injection, schedule: Q04DX003 (ip), vehicle: saline with Tween-80 97 % of control | dose: 100.0 mg/kg/injection, schedule: Q04DX003 (ip), vehicle: saline with Tween-80 101 % of control

O=C(NCC(S)c1ccc(Cl)cc1)C(F)(F)F (centres undefined)
inactive: dose: 200.0 mg/kg/injection, schedule: Q04DX003 (ip), vehicle: saline with Tween-80 88 % of control | dose: 400.0 mg/kg/injection, schedule: Q04DX003 (ip), vehicle: saline with Tween-80 86 % of control

CCOC(=O)C(=O)C(C#N)c1cccc2ccccc12 (centres undefined)
inactive: [18] 100 % of control | [19] 96 % of control

CCC(Cl)COP(=O)(OCC(Cl)CC)C(CC)P(=O)(OCC(Cl)CC)OCC(Cl)CC (centres undefined)
inactive: [6] 91 % of control | [7] 95 % of control | [8] 93 % of control

CC1=NNC(=O)CC1
inactive: [6] 102 % of control | [7] 104 % of control | [8] 96 % of control

Cc1c(C)c(CC#N)c(C)c(C)c1CC#N
inactive: [9] 86 % of control | [18] 91 % of control | [10] 88 % of control | [19] 88 % of control | [20] 94 % of control

CC(C)CC1NC(C)(C)N(CC(=O)O)C1=O (centres undefined)
inactive: dose: 50.0 mg/kg/injection, schedule: Q01DX001 (ip), vehicle: saline 88 % of control | [2] 99 % of control

COC(=O)/C=C\C(=O)NC(C)(C)CC(C)(C)C
inactive: dose: 50.0 mg/kg/injection, schedule: Q01DX001 (ip), vehicle: carboxymethylcellulose (CMC) 100 % of control | [4] 105 % of control | [5] 105 % of control | dose: 400.0 mg/kg/injection, schedule: Q01DX001 (ip), vehicle: carboxymethylcellulose (CMC) 96 % of control

c1ccc([Si](O[O][Ge]([c]2ccccc2)([c]2ccccc2)[c]2ccccc2)(c2ccccc2)c2ccccc2)cc1
inactive: [18] 93 % of control | [19] 86 % of control | [20] 89 % of control
